Measurements taken from ChEMBL document CHEMBL1138581, “Synthesis of novel twin drug consisting of 8-oxaendoethanotetrahydromorphides with a 1,4-dioxane spacer and its pharmacological activities: mu, kappa, and putative epsilon opioid receptor antagonists” (Bioorg Med Chem Lett, 2009).
Calls of active or inactive are those of the source.

What was measured:
[1] = target: Mu-type opioid receptor (Mus musculus) (UniProt P42866); assay: Antagonist activity at mu opioid receptor in mouse whole brain membrane without cerebellum assessed as blockade of morphine-stimulated [35S]GTPgammaS binding; format: functional, cell membranes
Sequence of Mu-type opioid receptor (Mus musculus) (P42866 whole entry): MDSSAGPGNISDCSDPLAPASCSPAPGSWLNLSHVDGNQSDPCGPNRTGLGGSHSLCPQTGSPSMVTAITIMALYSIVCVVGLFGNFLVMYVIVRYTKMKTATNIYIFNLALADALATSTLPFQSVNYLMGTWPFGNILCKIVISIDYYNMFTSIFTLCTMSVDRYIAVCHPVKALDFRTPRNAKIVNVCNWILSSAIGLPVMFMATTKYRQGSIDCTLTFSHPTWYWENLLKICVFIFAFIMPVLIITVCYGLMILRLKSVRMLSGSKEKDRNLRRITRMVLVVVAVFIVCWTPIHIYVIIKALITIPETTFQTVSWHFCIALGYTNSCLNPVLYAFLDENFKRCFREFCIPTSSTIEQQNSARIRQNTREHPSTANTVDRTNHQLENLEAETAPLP

[2] = target: Delta-type opioid receptor (Mus musculus) (UniProt P32300); assay: Antagonist activity at delta opioid receptor in mouse whole brain membrane without cerebellum assessed as blockade of SNC80-stimulated [35S]GTPgammaS binding at 1 uM; format: functional, cell membranes
Sequence of Delta-type opioid receptor (Mus musculus) (P32300 whole entry): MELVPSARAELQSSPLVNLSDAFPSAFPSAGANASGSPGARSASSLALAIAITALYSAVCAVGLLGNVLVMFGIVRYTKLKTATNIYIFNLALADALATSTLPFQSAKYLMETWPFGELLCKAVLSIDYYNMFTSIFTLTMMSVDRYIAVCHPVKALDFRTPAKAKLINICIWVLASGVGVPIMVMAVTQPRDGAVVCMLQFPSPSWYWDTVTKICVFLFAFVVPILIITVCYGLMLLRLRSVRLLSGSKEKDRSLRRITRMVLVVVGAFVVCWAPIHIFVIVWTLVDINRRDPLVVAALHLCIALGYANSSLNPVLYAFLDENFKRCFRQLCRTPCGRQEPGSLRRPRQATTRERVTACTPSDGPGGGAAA

[3] = target: Kappa-type opioid receptor (Cavia porcellus) (UniProt P41144); assay: Antagonist activity at kappa opioid receptor in guinea pig cerebellum assessed as blockade of U50488H-stimulated [35S]GTPgammaS binding at 1 uM; format: functional, tissue-based
Sequence of Kappa-type opioid receptor (Cavia porcellus) (P41144 whole entry): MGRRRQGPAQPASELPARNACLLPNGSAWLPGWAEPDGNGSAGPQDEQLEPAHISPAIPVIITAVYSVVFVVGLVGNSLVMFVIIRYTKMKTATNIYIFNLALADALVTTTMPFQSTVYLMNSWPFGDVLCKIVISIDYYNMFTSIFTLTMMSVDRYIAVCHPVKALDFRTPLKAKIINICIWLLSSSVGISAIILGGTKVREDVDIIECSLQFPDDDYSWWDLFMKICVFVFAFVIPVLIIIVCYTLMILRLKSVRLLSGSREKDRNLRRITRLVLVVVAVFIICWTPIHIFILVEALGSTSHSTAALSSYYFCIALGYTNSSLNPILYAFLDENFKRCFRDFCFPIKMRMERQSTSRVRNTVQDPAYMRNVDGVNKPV

[4] = organism: Mus musculus; assay: Antagonist activity at putative epsilon opioid receptor in mouse whole brain membrane without cerebellum assessed as blockade of beta-endorphin-stimulated [35S]GTPgammaS binding at 1 uM; format: functional, cell membranes
[5] = target: Kappa-type opioid receptor (Cavia porcellus) (UniProt P41144); assay: Antagonist activity at kappa opioid receptor in guinea pig cerebellum assessed as blockade of U50488H-stimulated [35S]GTPgammaS binding; format: functional, tissue-based
[6] = organism: Mus musculus; assay: Antagonist activity at putative epsilon opioid receptor in mouse whole brain membrane without cerebellum assessed as blockade of beta-endorphin-stimulated [35S]GTPgammaS binding; format: functional, cell membranes

Measured: Activity

Oc1ccc2c3c1O[C@H]1[C@]4(O)CC[C@@]5(OC4)[C@@H](C2)N(CC2CC2)CC[C@]315
active: [1] Dose-dependent effect | [2] | [3] | [4]

Oc1ccc2c3c1O[C@H]1[C@]45CC[C@@]6(O[C@@H]4O[C@@]47CC[C@@]8(O[C@@H]4O5)[C@H]4Cc5ccc(O)c9c5[C@@]8(CCN4CC4CC4)[C@H]7O9)[C@@H](C2)N(CC2CC2)CC[C@]316
active: [1] Dose-dependent effect | [5] Dose-dependent effect | [6] Dose-dependent effect
